This note sets out measurements from patent publication US20090124607A1, “Novel Bicyclic Sulfonamides for Use as Glucocorticoid Receptor Modulators in the Treatment of Inflammatory Diseases” (priority 2005, published 2009).

The target in this test is T1, recombinant human GR (Homo sapiens, UniProt P04150).
T1 construct: purchased Panvera/Invitrogen P2812 (kit P2893)
T1 sequence (P04150 1-777): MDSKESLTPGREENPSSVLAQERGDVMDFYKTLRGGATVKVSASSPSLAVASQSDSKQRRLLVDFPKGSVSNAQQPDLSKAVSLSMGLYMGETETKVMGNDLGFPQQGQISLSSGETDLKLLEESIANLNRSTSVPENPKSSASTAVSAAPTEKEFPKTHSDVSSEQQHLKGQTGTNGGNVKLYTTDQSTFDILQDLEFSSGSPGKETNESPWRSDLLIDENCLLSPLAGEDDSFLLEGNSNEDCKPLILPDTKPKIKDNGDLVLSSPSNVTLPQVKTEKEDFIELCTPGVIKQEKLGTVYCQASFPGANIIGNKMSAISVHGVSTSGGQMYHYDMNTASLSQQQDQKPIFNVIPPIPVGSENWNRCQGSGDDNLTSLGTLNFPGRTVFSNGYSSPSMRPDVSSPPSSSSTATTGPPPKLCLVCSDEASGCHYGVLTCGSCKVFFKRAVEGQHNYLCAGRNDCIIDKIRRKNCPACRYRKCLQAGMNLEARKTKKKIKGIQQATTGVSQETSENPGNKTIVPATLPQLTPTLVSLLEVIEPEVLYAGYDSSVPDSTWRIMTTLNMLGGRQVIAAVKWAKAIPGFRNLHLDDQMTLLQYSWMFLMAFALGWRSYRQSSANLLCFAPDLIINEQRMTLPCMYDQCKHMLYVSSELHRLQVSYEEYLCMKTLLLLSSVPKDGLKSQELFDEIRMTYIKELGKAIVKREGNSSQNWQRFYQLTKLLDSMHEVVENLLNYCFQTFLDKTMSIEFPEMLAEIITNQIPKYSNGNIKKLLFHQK
The test can be described thus: Human Glucocorticoid Receptor (GR) Assay, fluorescence polarization (GRhuFL_FP_v2, GR-binders). Format: binding. Here is the method:
Human Glucocorticoid Receptor (GR) Assay
The assay is based on a commercial kit from Panvera/Invitrogen (Part number P2893). The assay technology is fluorescence polarization. […] The GR and Stabilizing Peptide reagents are stored at −70° C. while the GS Red is stored at −20° C. Also included in the kit are 1M DTT (Panvera, Part number P2325, stored at −20° C.) and GR Screening buffer 10× (Panvera, Part number P2814, stored at −70° C. initially but once thawed stored at room temperature). Avoid repeated freeze/thaws for all reagents. The GR Screening buffer 10× comprises 100 mM potassium phosphate, 200 mM sodium molybdate, 1 mM EDTA and 20% DMSO.
0% control was 100% DMSO and 100% control was 10 μM Dexamethasone. Background solution (8 μL; assay buffer 10×, Stabilizing Peptide, DTT and ice cold MQ water) was added to the background wells. GS Red solution (7 μL; assay buffer 10×, Stabilizing Peptide, DTT, GS Red and ice cold water) was added to all wells except background wells. GR solution (7 μL; assay buffer 10×, Stabilizing Peptide, DTT, GR and ice cold water) was added to all wells. The plate was sealed and incubated in a dark at room temperature for 2 hours.
(In general: In fluorescence polarisation assays a small probe gives low polarisation when free and higher when bound to something large.)

Molecules are shown by their SMILES. pIC50: −log10 of the molar value.

With `Cc1cc(C)c(S(=O)(=O)N[C@@H](C)CNc2ncnc3c2cnn3-c2ccccc2)c(C)c1` [Example 34, 2,4,6-Trimethyl-N-{(1S)-1-methyl-2-[(1-phenyl-1H-pyrazolo[3,4-d]pyrimidin-4-yl)amino]ethyl}benzenesulfonamide], the pIC50 (commonly the negative decadic logarithm of the IC50, by convention in mol/L) was 5.28. Then `Cc1n[nH]c(C)c1S(=O)(=O)N[C@@H](C)COc1cccc2c1cnn2-c1ccc(F)cc1` [Example 41, N-((1S)-2-{[1-(4-Fluorophenyl)-1H-indazol-4-yl]oxy}-1-methylethyl)-3,5-dimethyl-1H-pyrazole-4-sulfonamide], with 8.82; and `Cc1cc(C)c(S(=O)(=O)N[C@@H](C)CNc2cccc3c2cnn3-c2ccncc2)c(C)c1` [Example 14, 2,4,6-Trimethyl-N-{(1S)-1-methyl-2-[(1-pyridin-4-yl-1H-indazol-4-yl)amino]ethyl}benzenesulfonamide], with 8.37; and `Cc1cc(C)c(S(=O)(=O)N[C@@H](C)CNc2cccc3c2cnn3-c2cccnc2)c(C)c1` [Example 16, 2,4,6-Trimethyl-N-{(1S)-1-methyl-2-[(1-pyridin-3-yl-1H-indazol-4-yl)amino]ethyl}benzenesulfonamide], with 8.25. Next, `Cc1nn(C2CCCC2)c(C)c1S(=O)(=O)N[C@@H](C)CNc1cccc2c1cnn2-c1ccc(F)nc1` [Example 26, 1-Cyclopentyl-N-((1S)-2-{[1-(6-fluoropyridin-3-yl)-1H-indazol-4-yl]amino}-1-methylethyl)-3,5-dimethyl-1H-pyrazole-4-sulfonamide]: 8.52; `Cc1cc(C)c(S(=O)(=O)NC(C)CSc2cccc3c2cnn3-c2ccc(F)cc2)c(C)c1` (centres unmarked) [Example 36, N-[2-[1-(4-Fluorophenyl)indazol-4-yl]sulfanyl-1-methylethyl]-2,4,6-trimethyl-benzenesulfonamide]: 8.12; `Cc1cc(C)c(S(=O)(=O)N[C@@H](C)CNc2c(F)ccc3c2cnn3-c2ccc(F)cc2)c(C)c1` [Example 32, N-((1S)-2-{[5-Fluoro-1-(4-fluorophenyl)-1H-indazol-4-yl]amino}-1-methylethyl)-2,4,6-trimethylbenzenesulfonamide]: 8.38. As to `Cc1cc(C)c(S(=O)(=O)N[C@@H](C)CNc2cccc3c2cnn3-c2ccc(F)c(C)c2)c(C)c1` [Example 17, N-((1S)-2-{[1-(4-Fluoro-3-methylphenyl)-1H-indazol-4-yl]amino}-1-methylethyl)-2,4,6-trimethylbenzenesulfonamide], the pIC50 was 8.40. Then `Cc1cc(C)c(S(=O)(=O)N[C@@H](C)CNc2cccc3c2cnn3-c2cccc(C(F)(F)F)c2)c(C)c1` [Example 19, 2,4,6-Trimethyl-N-[(1S)-1-methyl-2-({1-[3-(trifluoromethyl)phenyl]-1H-indazol-4-yl}amino)ethyl]benzene sulfonamide], with 6.59. Next, `Cc1cccc(-n2ncc3c(NC[C@H](C)NS(=O)(=O)c4c(C)cc(C)cc4C)cccc32)c1` [Example 9, 2,4,6-Trimethyl-N-((1S)-1-methyl-2-{[1-(3-methylphenyl)-1H-indazol-4-yl]amino}ethyl)benzenesulfonamide]: 8.42; `Cc1n[nH]c(C)c1S(=O)(=O)N[C@@H](C)COc1cccc2c1cnn2-c1cccnc1` [Example 42, 3,5-Dimethyl-N-{(1S)-1-methyl-2-[(1-pyridin-3-yl-1H-indazol-4-yl)oxy]ethyl}-1H-pyrazole-4-sulfonamide]: 5.40; `Cc1cc(C)c(S(=O)(=O)NC[C@H](C)Nc2cccc3c2cnn3-c2ccc(F)cc2)c(C)c1` [Example 40, N-((2S)-2-{[1-(4-Fluorophenol)-1H-indazol-4-yl]amino}propyl)-2,4,6-trimethylbenzenesulfonamide]: 8.19. Then `Cc1cc(C)c(S(=O)(=O)N[C@@H](C)CCc2cccc3c2cnn3-c2ccc(F)cc2)c(C)c1` [Example 39, N-{(1S)-3-[1-(4-Fluorophenyl)-1H-indazol-4-yl]-1-methylpropyl}-2,4,6-trimethylbenzenesulfonamide], with 8.34; and `Cc1cc(C)c(S(=O)(=O)N[C@@H](C)CNc2cccc3c2cnn3-c2cccc(OC(F)(F)F)c2)c(C)c1` [Example 6, 2,4,6-Trimethyl-N-[(1S)-1-methyl-2-({1-[3-(trifluoromethoxy)phenyl]-1H-indazol-4-yl}amino)ethyl]benzenesulfonamide], with 7.82. In the case of `Cc1cc(C)c(S(=O)(=O)NC(COc2cccc3c2cnn3-c2ccc(F)cc2)C(F)(F)F)c(C)c1` (centres unmarked) [Example 4], the negative-log IC50 (pIC50) was 8.40. Next, `COc1ccc(-n2ncc3c(NC[C@H](C)NS(=O)(=O)c4c(C)cc(C)cc4C)cccc32)cn1` [Example 11, N-((1S)-2-{[1-(6-Methoxypyridin-3-yl)-1H-indazol-4-yl]amino}-1-methylethyl)-2,4,6-trimethylbenzenesulfonamide]: 8.18; `CCC(CC)n1nc(C)c(S(=O)(=O)N[C@@H](C)COc2cccc3c2cnn3-c2ccc(F)cc2)c1C` [Example 46, 1-(1-Ethylpropyl)-N-((1S)-2-{[1-(4-fluorophenyl)-1H-indazol-4-yl]oxy}-1-methylethyl)-3,5-dimethyl-1H-pyrazole-4-sulfonamide]: 7.74; `Cc1cc(C)c(S(=O)(=O)N[C@@H](C)CNc2ccc(F)c3c2cnn3-c2ccc(F)cc2)c(C)c1` [Example 33, N-((1S)-2-{[7-Fluoro-1-(4-fluoro-phenyl)-1H-indazol-4-yl]amino}-1-methylethyl)-2,4,6-trimethylbenzenesulfonamide]: 8.26.

`Cc1cc(C)c(S(=O)(=O)N[C@@H](C)CNc2cccc3c2cnn3C2CCCC2)c(C)c1` [Example 50, N-{(1S)-2-[(1-Cyclopentyl-1H-indazol-4-yl)amino]-1-methylethyl}-2,4,6-trimethylbenzene sulfonamide]: the pIC50 was 8.15. In the case of `Cc1cc(C)c(S(=O)(=O)N[C@@H](C)CNc2cccc3c2cnn3-c2cncnc2)c(C)c1` [Example 15, 2,4,6-Trimethyl-N-{(1S)-1-methyl-2-[(1-pyrimidin-5-yl-1H-indazol-4-yl)amino]ethyl}benzenesulfonamide], the pIC50 was 8.27. Next, `Cc1nn(C(C)(C)C)c(C)c1S(=O)(=O)N[C@@H](C)COc1cccc2c1cnn2-c1cccnc1` [Example 44, 1-tert-Butyl-3,5-dimethyl-N-{(1S)-1-methyl-2-[(1-pyridin-3-yl-1H-indazol-4-yl)oxy]ethyl}-1H-pyrazole-4-sulfonamide]: 7.10. Then `Cc1cc(C)c(S(=O)(=O)N[C@@H](C)CNc2c(C)ccc3c2cnn3-c2ccc(F)cc2)c(C)c1` [Example 23, N-((1S)-2-{[1-(4-Fluorophenyl)-5-methyl-1H-indazol-4-yl]amino}-1-methylethyl)-2,4,6-trimethylbenzenesulfonamide], with 8.14.

Consider `COc1ncc(-n2ncc3c(NC[C@H](C)NS(=O)(=O)c4c(C)nn(C5CCCC5)c4C)cccc32)cn1` [Example 28, 1-Cyclopentyl-N-((1S)-2-{[1-(2-methoxypyrimidin-5-yl)-1H-indazol-4-yl]amino}-1-methylethyl)-3,5-dimethyl-1H-pyrazole-4-sulfonamide], for which the pIC50 was 7.64.
